Source: patent US10966426B2, “Herbicidal compositions comprising phenylpyrimidines” (BASF SE, priority 2016, dated 2021)

Key:
Type in all cases: in vivo
Alopecurus myosuroides = experiment: greenhouse pre-emergence treatment, ALOMY
From the text: (§1) The culture containers used were plastic pots containing loamy sand with approximately 3.0% of humus as substrate. The seeds of the test plants were sown separately for each species.
(§2) For the pre-emergence treatment, the active compounds, suspended or emulsified in water, were applied directly after sowing by means of finely distributing nozzles. The containers were irrigated gently to promote germination and growth and subsequently covered with transparent plastic hoods until the plants had rooted. This cover caused uniform germination of the test plants unless this was adversely affected by the active compounds.
(§3) Depending on the species, the plants were kept at 10-25° C. and 20-35° C., respectively.
(§4) The test period extended over 2 to 4 weeks. During this time, the plants were tended and their response to the individual treatments was evaluated.
(§5) Evaluation was carried out using a scale from 0 to 100. 100 means no emergence of the plants, or complete destruction of at least the above-ground parts, and 0 means no damage or normal course of growth. A good herbicidal activity is given at values of at least 70, and very good herbicidal activity is given at values of at least 85.
(§6) The respective stated components A and B, and if appropriate, C were formulated as a 10% by weight strength emulsion concentrate and, with addition of the amount of solvent system, introduced into the spray liquor used for applying the active compound. In the examples, the solvent used was water.
(§7) In the examples below, using the method of S. R. Colby (1967) “Calculating synergistic and antagonistic responses of herbicide combinations”, Weeds 15, p. 22ff., the value E, which is expected if the activity of the individual active compounds is only additive, was calculated. E=X+Y−(X·Y/100) where X=effect in percent using herbicide A at an application rate a; • Y=effect in percent using herbicide B at application rate b; • E=expected effect (in %) of herbicide A+herbicide B at application rates a+b.

Papaver rhoeas = experiment: greenhouse pre-emergence treatment, PAPRH; details: 20 DAT
From the text: as §1, §2, §3, §4, §5, §6, §7

Avena fatua = experiment: greenhouse pre-emergence treatment, AVEFA; details: 20 DAT
From the text: as §1, §2, §3, §4, §5, §6, §7

Helianthus annuus = experiment: greenhouse pre-emergence treatment, HELAN; details: HELAN, 20 DAT
From the text: as §1, §2, §3, §4, §5, §6, §7

Lolium multiflorum = experiment: greenhouse pre-emergence treatment, LOLMU; details: Lolium multiflorum, 480 h, 20 DAT
From the text: as §1, §2, §3, §4, §5, §6, §7

Galium aparine [1] = experiment: greenhouse pre-emergence treatment, GALAP
From the text: as §1, §2, §3, §4, §5, §6, §7

Stellaria media = experiment: greenhouse pre-emergence treatment, STEME; details: 20 DAT
From the text: as §1, §2, §3, §4, §5, §6, §7

Bromus sterilis = experiment: greenhouse pre-emergence treatment, BROST; details: BROST, 20 DAT; for pest or weed control at 62.5 g/ha: Bromus sterilis, 480 h
From the text: as §1, §2, §3, §4, §5, §6, §7

Brachiaria decumbens = experiment: greenhouse pre-emergence treatment, BRADC; details: Urochloa decumbens, 480 h, 20 DAT
From the text: as §1, §2, §3, §4, §5, §6, §7

Ambrosia elatior = experiment: greenhouse pre-emergence treatment, AMBEL
From the text: as §1, §2, §3, §4, §5, §6, §7

Setaria viridis = experiment: greenhouse pre-emergence treatment, SETVI; details: for % activity: SETVI
From the text: as §1, §2, §3, §4, §5, §6, §7

Galium aparine [2] = experiment: greenhouse post-emergence treatment, GALAP; details: Galium aparine, 480 h, Table X12, 20 DAT, GALAP, solo isoproturon (SC 500 g/l) 500 gai/ha
Outline: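 Foliar application to greenhouse-grown plants 3–15 cm tall in humus-containing loamy sand; response assessed on a 0–100 scale after 2–4 weeks, with Colby's E=X+Y−(X·Y/100) as the additive expectation.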

Echinocloa crus-galli = experiment: greenhouse post-emergence treatment, ECHCG; details: Table X12, 20 DAT, ECHCG, solo isoproturon (SC 500 g/l) 125 gai/ha
Protocol: as §1
For the post-emergence treatment, the test plants were grown to a plant height of from 3 to 15 cm, depending on the plant habit, and only then treated with the active compounds which had been suspended or emulsified in water. To this end, the test plants were either sown directly, and grown in the same containers, or they were first grown separately as seedlings and transplanted into the test containers a few days prior to treatment.
as §3, §4, §5, §6, §7

Poa annua = experiment: greenhouse pre-emergence treatment, POAAN; details: 20 DAT
From the text: as §1, §2, §3, §4, §5, §6, §7

Digitaria sanguinalis = experiment: greenhouse pre-emergence treatment, DIGSA; details: Digitaria sanguinalis, 480 h, 20 DAT
From the text: as §1, §2, §3, §4, §5, §6, §7

Apera spica-venti = experiment: greenhouse pre-emergence treatment, APESV; details: 20 DAT
From the text: as §1, §2, §3, §4, §5, §6, §7

Polygonum convolvulus = experiment: greenhouse pre-emergence treatment, POLCO; details: Fallopia convolvulus, 480 h, 20 DAT, saflufenacil solo 12.5 gai/ha
From the text: as §1, §2, §3, §4, §5, §6, §7

[3] = solo dimethenamid (EC 720 g/l) 62.5 gai/ha
[4] = dimethenamid solo (EC 720 g/l), 62.5 gai/ha
[5] = Table X13, 20 DAT, solo isoproturon (SC 500 g/l) 125 gai/ha
[6] = solo quinmerac (WP 50%) 62.5 gai/ha
[7] = solo quinmerac (WP 50%) 250 gai/ha
[8] = solo saflufenacil (SC 342 g/l) 6.25 gai/ha, 20 DAT
[9] = solo saflufenacil (SC 342 g/l) 25 gai/ha, 20 DAT

## COCC(C)N(C(=O)CCl)c1c(C)csc1C (stereo not drawn) [dimethenamid]
Alopecurus myosuroides; dimethenamid solo (EC 720 g/l), 125 gai/ha, 20 DAT
  % activity: 60%
Alopecurus myosuroides; dimethenamid solo (EC 720 g/l), 250 gai/ha, 20 DAT
  % activity: 65%
Papaver rhoeas; [3]
  % activity: 90%
Papaver rhoeas; [4]
  % activity: 90%
Papaver rhoeas; dimethenamid solo (EC 720 g/l), 125 gai/ha
  % activity: 90%
Avena fatua; AVEFA, solo dimethenamid (EC 720 g/l) 62.5 gai/ha
  % activity: 10%
Avena fatua; Avena fatua, 480 h, dimethenamid solo (EC 720 g/l), 62.5 gai/ha, AVEFA
  pest or weed control at 62.5 g/ha: 10%
Avena fatua; Avena fatua, 480 h, dimethenamid solo (EC 720 g/l), 125 gai/ha, AVEFA
  pest or weed control at 125 g/ha: 50%
Avena fatua; Avena fatua, 480 h, dimethenamid solo (EC 720 g/l), 250 gai/ha, AVEFA
  pest or weed control at 250 g/ha: 65%
Helianthus annuus; solo dimethenamid (EC 720 g/l) 250 gai/ha
  % activity: 35%
Helianthus annuus; Helianthus annuus, 480 h, dimethenamid solo (EC 720 g/l), 250 gai/ha
  plant injury at 250 g/ha: 35%
Lolium multiflorum; dimethenamid solo (EC 720 g/l), 62.5 gai/ha, LOLMU
  pest or weed control at 62.5 g/ha: 80%
Galium aparine [1]; GALAP, 20 DAT, solo dimethenamid (EC 720 g/l) 31.25 gai/ha
  % activity: 50%
Galium aparine [1]; GALAP, 20 DAT, solo dimethenamid (EC 720 g/l) 62.5 gai/ha
  % activity: 60%
Galium aparine [1]; GALAP, 20 DAT, solo dimethenamid (EC 720 g/l) 125 gai/ha
  % activity: 50%
Galium aparine [1]; Galium aparine, 480 h, dimethenamid solo (EC 720 g/l), 31.25 gai/ha, 20 DAT, GALAP
  pest or weed control at 31.25 g/ha: 50%
Galium aparine [1]; Galium aparine, 480 h, dimethenamid solo (EC 720 g/l), 62.5 gai/ha, 20 DAT, GALAP
  pest or weed control at 62.5 g/ha: 60%
Galium aparine [1]; Galium aparine, 480 h, dimethenamid solo (EC 720 g/l), 125 gai/ha, 20 DAT, GALAP
  pest or weed control at 125 g/ha: 50%
Stellaria media; dimethenamid solo (EC 720 g/l), 31.25 gai/ha
  % activity: 80%
Stellaria media; [4]
  % activity: 90%
Bromus sterilis; [3]
  % activity: 80%
Bromus sterilis; [4]
  pest or weed control at 62.5 g/ha: 80%
Brachiaria decumbens; dimethenamid solo (EC 720 g/l), 31.25 gai/ha, BRADC
  pest or weed control at 31.25 g/ha: 60%
Ambrosia elatior; AMBEL, 20 DAT, solo dimethenamid (EC 720 g/l) 125 gai/ha
  % activity: 20%
Ambrosia elatior; AMBEL, 20 DAT, solo dimethenamid (EC 720 g/l) 250 gai/ha
  % activity: 30%
Ambrosia elatior; Ambrosia artemisiifolia, 480 h, AMBEL, 20 DAT, solo dimethenamid (EC 720 g/l) 31.25 gai/ha
  pest or weed control at 31.25 g/ha: 0%
Ambrosia elatior; Ambrosia artemisiifolia, 480 h, AMBEL, 20 DAT, solo dimethenamid (EC 720 g/l) 62.5 gai/ha
  pest or weed control at 62.5 g/ha: 0%
Ambrosia elatior; Ambrosia artemisiifolia, 480 h, dimethenamid solo (EC 720 g/l), 125 gai/ha, 20 DAT, AMBEL
  pest or weed control at 125 g/ha: 20%
Ambrosia elatior; Ambrosia artemisiifolia, 480 h, dimethenamid solo (EC 720 g/l), 250 gai/ha, 20 DAT, AMBEL
  pest or weed control at 250 g/ha: 30%

## CC(C)c1ccc(NC(=O)N(C)C)cc1 [isoproturon]
Alopecurus myosuroides; [5]
  % activity: 0%
Setaria viridis; [5]
  % activity: 0%
Setaria viridis; Table X13, 20 DAT, solo isoproturon (SC 500 g/l) 500 gai/ha
  % activity: 75%
Galium aparine [2]
  pest or weed control at 500000 µg/mL, 500 g/ha: 30%
Echinocloa crus-galli
  % activity: 40%

## Cc1cnc2c(C(=O)O)c(Cl)ccc2c1 [quinmerac]
Poa annua; [6]
  % activity: 0%
Poa annua; solo quinmerac (WP 50%) 125 gai/ha
  % activity: 0%
Poa annua; [7]
  % activity: 0%
Papaver rhoeas; [7]
  % activity: 95%
Avena fatua; Avena fatua, 480 h, AVEFA, solo quinmerac (WP 50%) 31.25 gai/ha
  pest or weed control at 31.25 g/ha: 0%
Avena fatua; Avena fatua, 480 h, AVEFA, solo quinmerac (WP 50%) 125 gai/ha
  pest or weed control at 125 g/ha: 0%
Helianthus annuus; Helianthus annuus, 480 h, solo quinmerac (WP 50%) 125 gai/ha
  plant injury at 125 g/ha: 0%
Helianthus annuus; Helianthus annuus, 480 h, quinmerac solo (WP 50%), 62.5 gai/ha
  plant injury at 62.5 g/ha: 0%
Lolium multiflorum; LOLMU, solo quinmerac (WP 50%) 250 gai/ha
  pest or weed control at 250 g/ha: 0%
Galium aparine [1]; Galium aparine, 480 h, GALAP, 20 DAT, solo quinmerac (WP 50%) 125 gai/ha
  pest or weed control at 125 g/ha: 95%
Stellaria media; [7]
  % activity: 0%
Digitaria sanguinalis; DIGSA, solo quinmerac (WP 50%) 31.25 gai/ha
  pest or weed control at 31.25 g/ha: 0%
Digitaria sanguinalis; DIGSA, solo quinmerac (WP 50%) 62.5 gai/ha
  pest or weed control at 62.5 g/ha: 0%
Digitaria sanguinalis; DIGSA, solo quinmerac (WP 50%) 125 gai/ha
  pest or weed control at 125 g/ha: 0%
Bromus sterilis; [6]
  pest or weed control at 62.5 g/ha: 0%
Brachiaria decumbens; quinmerac solo (WP 50%), 62.5 gai/ha, BRADC
  pest or weed control at 62.5 g/ha: 0%
Brachiaria decumbens; quinmerac solo (WP 50%), 125 gai/ha, BRADC
  pest or weed control at 125 g/ha: 0%
Brachiaria decumbens; quinmerac solo (WP 50%), 250 gai/ha, BRADC
  pest or weed control at 250 g/ha: 30%
Apera spica-venti; [6]
  % activity: 0%
Apera spica-venti; [7]
  % activity: 25%
Ambrosia elatior; Ambrosia artemisiifolia, 480 h, AMBEL, 20 DAT, solo quinmerac (WP 50%) 250 gai/ha
  pest or weed control at 250 g/ha: 0%

## CC(C)N(C)S(=O)(=O)NC(=O)c1cc(-n2c(=O)cc(C(F)(F)F)n(C)c2=O)c(F)cc1Cl [saflufenacil]
Alopecurus myosuroides; [8]
  % activity: 0%
Alopecurus myosuroides; solo saflufenacil (SC 342 g/l) 12.5 gai/ha, 20 DAT
  % activity: 0%
Alopecurus myosuroides; [9]
  % activity: 0%
Avena fatua; Avena fatua, 480 h, saflufenacil solo 6.25 gai/ha
  inhibition at 6.25 g/ha: 0%
Lolium multiflorum; saflufenacil solo 6.25 gai/ha
  inhibition at 6.25 g/ha: 10%
Polygonum convolvulus
  inhibition at 12.5 g/ha: 90%
Setaria viridis; [8]
  % activity: 25%
Setaria viridis; [9]
  % activity: 65%
Setaria viridis; Setaria viridis, 480 h, 20 DAT, saflufenacil solo 6.25 gai/ha
  inhibition at 6.25 g/ha: 25%
Setaria viridis; Setaria viridis, 480 h, 20 DAT, saflufenacil solo 12.5 gai/ha
  inhibition at 12.5 g/ha: 40%
Setaria viridis; Setaria viridis, 480 h, 20 DAT, saflufenacil solo 25 gai/ha
  inhibition at 25 g/ha: 65%
Setaria viridis; Setaria viridis, 480 h, 20 DAT, saflufenacil solo 50 gai/ha
  inhibition at 50 g/ha: 90%
Galium aparine [1]; Galium aparine, 480 h, 20 DAT, saflufenacil solo 12.5 gai/ha
  % herbicidal activity (weed control, 0-100 scale) at 12.5 g/ha: 80%
Galium aparine [1]; Galium aparine, 480 h, Table X11, 20 DAT, GALAP, solo saflufenacil (title: flumioxazin, WG 51%) 30 gai/ha, read-out: % activity
  pest or weed control at 30 g/ha: 65%
Digitaria sanguinalis; saflufenacil solo 6.25 gai/ha
  inhibition at 6.25 g/ha: 10%
Digitaria sanguinalis; saflufenacil solo 25 gai/ha
  inhibition at 25 g/ha: 35%
Brachiaria decumbens; saflufenacil solo 6.25 gai/ha
  % herbicidal activity (weed control, 0-100 scale) at 6.25 g/ha: 10%
Brachiaria decumbens; saflufenacil solo 12.5 gai/ha
  % herbicidal activity (weed control, 0-100 scale) at 12.5 g/ha: 20%
Ambrosia elatior; Ambrosia artemisiifolia, 480 h, 20 DAT, saflufenacil solo 6.25 gai/ha
  percent weed control (herbicidal activity, 0-100 scale) at 6.25 g/ha: 45%
Ambrosia elatior; Ambrosia artemisiifolia, 480 h, Table X11, 20 DAT, AMBEL, solo saflufenacil (title: flumioxazin, WG 51%) 3.75 gai/ha
  pest or weed control at 3.75 g/ha: 0%
